{
  "source": "paper PMC12038163",
  "about": "(Research, 2025)",
  "assay": "in vivo",
  "conditions": "male, Sprague-Dawley, rat, ip, 10 mg/kg",
  "data": [
    {"compound": "Cc1cccc(-c2ccc(-c3cc4cnc(NC5CC5)nc4n(CCCCCC(=O)NO)c3=O)c(Cl)c2)n1", "note": "[ZMF-25]", "values": [
      {"measurement": "AUC(0-inf)", "value": 9100, "unit": "ng·h/mL"},
      {"measurement": "AUC(0-t)", "value": 9070, "unit": "ng·h/mL"},
      {"measurement": "CL/F", "value": 30, "unit": "mL/min/kg"},
      {"measurement": "Cmax", "value": 5110, "unit": "ng/mL"},
      {"measurement": "half-life", "value": "1.4 ± 0.3", "unit": "h"}
    ]}
  ]
}
